Assay results: US20240158446A1, “CYCLIC COMPOUND HAVING SELECTIVE INHIBITORY ACTION ON KRAS OVER HRAS AND NRAS” (CHUGAI SEIYAKU KABUSHIKI KAISHA, priority 2021, published 2024)

Experiments:
[1] = target: GDP-bound KRAS wild-type protein (Homo sapiens, UniProt P01116); experiment: Binding to KRAS by surface plasmon resonance (SPR), Single Cycle Kinetics; conditions: SPR, Single Cycle Kinetics, GDP-bound KRAS wild-type protein; read-out: KRAS KD
[2] = target: GDP-bound NRAS wild-type protein (Homo sapiens, UniProt P01111); experiment: Binding to NRAS by surface plasmon resonance (SPR), Single Cycle Kinetics; conditions: SPR, GDP-bound NRAS wild-type protein vs GDP-bound KRAS wild-type protein
[3] = target: GDP-bound HRAS wild-type protein (Homo sapiens, UniProt P01112); experiment: Binding to HRAS by surface plasmon resonance (SPR), Single Cycle Kinetics; conditions: SPR, GDP-bound HRAS wild-type protein vs GDP-bound KRAS wild-type protein
[4] = test system: human lung cancer strain NCI-H441;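 note: cell proliferation inhibition after four days measured by CellTiter-Glo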

Chain of GDP-bound HRAS wild-type protein (P01112 whole entry): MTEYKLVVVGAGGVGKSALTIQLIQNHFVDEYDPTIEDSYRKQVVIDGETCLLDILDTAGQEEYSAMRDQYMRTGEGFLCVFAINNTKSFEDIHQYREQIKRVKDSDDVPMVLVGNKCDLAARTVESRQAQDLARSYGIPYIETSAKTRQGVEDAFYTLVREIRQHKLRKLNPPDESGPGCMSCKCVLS
Chain of GDP-bound KRAS wild-type protein (P01116 whole entry): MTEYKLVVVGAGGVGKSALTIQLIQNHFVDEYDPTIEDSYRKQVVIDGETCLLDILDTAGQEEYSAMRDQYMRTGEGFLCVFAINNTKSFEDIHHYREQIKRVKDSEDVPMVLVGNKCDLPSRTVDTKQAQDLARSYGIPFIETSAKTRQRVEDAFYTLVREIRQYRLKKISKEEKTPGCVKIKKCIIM
Chain of GDP-bound NRAS wild-type protein (P01111 whole entry): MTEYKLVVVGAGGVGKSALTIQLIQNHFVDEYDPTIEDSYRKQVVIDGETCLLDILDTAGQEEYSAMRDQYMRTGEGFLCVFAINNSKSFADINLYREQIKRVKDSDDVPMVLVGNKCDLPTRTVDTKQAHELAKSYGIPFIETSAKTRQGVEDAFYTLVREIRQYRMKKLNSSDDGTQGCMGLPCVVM

Kd [1] | IC50 [4] | Structure (SMILES) | NRAS/KRAS (ratio of KD value for NRAS to KD value for KRAS) [2] | HRAS/KRAS (ratio of KD value for HRAS to KD value for KRAS) [3]
0.02 nM | 7.6 nM | CCOC[C@H]1C(=O)N[C@@H]([C@@H](C)CC)C(=O)N(C)CC(=O)N(C)[C@H]2C/C=C\CCN(C2=O)[C@@H](Cc2ccc(C(F)(F)F)cc2)C(=O)N(C)CC(=O)N[C@@H](CCc2ccc(C(F)(F)F)c(OC)c2)C(=O)N2C[C@@H](C)C[C@H]2C(=O)N(C)C2(CCC2)C(=O)N(C)[C@@H](C2CCCC2)C(=O)N(C)[C@H](C(=O)N(C)C)CC(=O)N1C [PP2359] | A (a compound having 10 or more and less than 20 is denoted as A) | B (a compound having 3 or more and less than 10 is denoted as B)
0.16 nM | 2.9 nM | CCC[C@H]1C(=O)N[C@@H]([C@@H](C)CC)C(=O)N(C2CC2)CC(=O)N(C)[C@H]2C/C=C\CCN(C2=O)[C@@H](Cc2ccc(C(F)(F)F)cc2)C(=O)N(C)CC(=O)N[C@@H](CCc2ccc(C(F)(F)F)c(OC)c2)C(=O)N2C[C@@H](C)C[C@H]2C(=O)N(C)C2(CCC2)C(=O)N(C)[C@@H](C2CCCC2)C(=O)N(C)[C@H](C(=O)N(C)C)CC(=O)N1C [PP2360] | A (a compound having 10 or more and less than 20 is denoted as A) | B (a compound having 3 or more and less than 10 is denoted as B)
0.076 nM | 4.8 nM | CCC[C@H]1C(=O)N[C@@H]([C@@H](C)CC)C(=O)N2CCC[C@H]2C(=O)N(C)[C@H]2C/C=C\CCN(C2=O)[C@@H](Cc2ccc(C(F)(F)F)cc2)C(=O)N(C)CC(=O)N[C@@H](CCc2ccc(C(F)(F)F)c(OC)c2)C(=O)N2C[C@@H](C)C[C@H]2C(=O)N(C)C2(CCC2)C(=O)N(C)[C@@H](C2CCCC2)C(=O)N(C)[C@H](C(=O)N(C)C)CC(=O)N1C [PP2362] | A (a compound having 10 or more and less than 20 is denoted as A) | A (a compound having 10 or more and less than 20 is denoted as A)
0.062 nM | 7.5 nM | CCOC[C@H]1C(=O)N[C@@H]([C@@H](C)CC)C(=O)N2CCC[C@H]2C(=O)N(C)[C@H]2C/C=C\CCN(C2=O)[C@@H](Cc2ccc(C(F)(F)F)cc2)C(=O)N(C)CC(=O)N[C@@H](CCc2ccc(C(F)(F)F)c(OC)c2)C(=O)N2C[C@@H](C)C[C@H]2C(=O)N(C)C2(CCC2)C(=O)N(C)[C@@H](C2CCCC2)C(=O)N(C)[C@H](C(=O)N(C)C)CC(=O)N1C [PP2363] | A (a compound having 10 or more and less than 20 is denoted as A) | B (a compound having 3 or more and less than 10 is denoted as B)
0.016 nM | 4.6 nM | CCC[C@H]1C(=O)N[C@@H]([C@@H](C)CC)C(=O)N(C)CC(=O)N(C)[C@H]2C/C=C\CCN(C2=O)[C@@H](Cc2ccc(C)cc2)C(=O)N(C)CC(=O)N[C@@H](CCc2ccc(C(F)(F)F)c(OC)c2)C(=O)N2C[C@@H](C)C[C@H]2C(=O)N(C)C2(CCC2)C(=O)N(C)[C@@H](C2CCCC2)C(=O)N(C)[C@H](C(=O)N(C)C)CC(=O)N1C [PP2364] | A (a compound having 10 or more and less than 20 is denoted as A) | B (a compound having 3 or more and less than 10 is denoted as B)
0.02 nM | 3.3 nM | CCCOC[C@H]1C(=O)N[C@@H]([C@@H](C)CC)C(=O)N(C)CC(=O)N(C)[C@H]2C/C=C\CCN(C2=O)[C@@H](Cc2ccc(C)cc2)C(=O)N(C)CC(=O)N[C@@H](CCc2ccc(C(F)(F)F)c(OC)c2)C(=O)N2C[C@@H](C)C[C@H]2C(=O)N(C)C2(CCC2)C(=O)N(C)[C@@H](C2CCCC2)C(=O)N(C)[C@H](C(=O)N(C)C)CC(=O)N1C [PP2365] | A (a compound having 10 or more and less than 20 is denoted as A) | B (a compound having 3 or more and less than 10 is denoted as B)
0.048 nM | 4.5 nM | CCC[C@H]1C(=O)N[C@@H]([C@@H](C)CC)C(=O)N(C2CC2)CC(=O)N(C)[C@H]2C/C=C\CCN(C2=O)[C@@H](Cc2ccc(C)cc2)C(=O)N(C)CC(=O)N[C@@H](CCc2ccc(C(F)(F)F)c(OC)c2)C(=O)N2C[C@@H](C)C[C@H]2C(=O)N(C)C2(CCC2)C(=O)N(C)[C@@H](C2CCCC2)C(=O)N(C)[C@H](C(=O)N(C)C)CC(=O)N1C [PP2366] | A (a compound having 10 or more and less than 20 is denoted as A) | A (a compound having 10 or more and less than 20 is denoted as A)
0.075 nM | 2.1 nM | CCCOC[C@H]1C(=O)N[C@@H]([C@@H](C)CC)C(=O)N(C2CC2)CC(=O)N(C)[C@H]2C/C=C\CCN(C2=O)[C@@H](Cc2ccc(C)cc2)C(=O)N(C)CC(=O)N[C@@H](CCc2ccc(C(F)(F)F)c(OC)c2)C(=O)N2C[C@@H](C)C[C@H]2C(=O)N(C)C2(CCC2)C(=O)N(C)[C@@H](C2CCCC2)C(=O)N(C)[C@H](C(=O)N(C)C)CC(=O)N1C [PP2367] | A (a compound having 10 or more and less than 20 is denoted as A) | B (a compound having 3 or more and less than 10 is denoted as B)
0.045 nM | 4.1 nM | CCC[C@H]1C(=O)N[C@@H]([C@@H](C)CC)C(=O)N2CCC[C@H]2C(=O)N(C)[C@H]2C/C=C\CCN(C2=O)[C@@H](Cc2ccc(C)cc2)C(=O)N(C)CC(=O)N[C@@H](CCc2ccc(C(F)(F)F)c(OC)c2)C(=O)N2C[C@@H](C)C[C@H]2C(=O)N(C)C2(CCC2)C(=O)N(C)[C@@H](C2CCCC2)C(=O)N(C)[C@H](C(=O)N(C)C)CC(=O)N1C [PP2368] | A (a compound having 10 or more and less than 20 is denoted as A) | A (a compound having 10 or more and less than 20 is denoted as A)
0.062 nM | 4.5 nM | CCCOC[C@H]1C(=O)N[C@@H]([C@@H](C)CC)C(=O)N2CCC[C@H]2C(=O)N(C)[C@H]2C/C=C\CCN(C2=O)[C@@H](Cc2ccc(C)cc2)C(=O)N(C)CC(=O)N[C@@H](CCc2ccc(C(F)(F)F)c(OC)c2)C(=O)N2C[C@@H](C)C[C@H]2C(=O)N(C)C2(CCC2)C(=O)N(C)[C@@H](C2CCCC2)C(=O)N(C)[C@H](C(=O)N(C)C)CC(=O)N1C [PP2369] | A (a compound having 10 or more and less than 20 is denoted as A) | B (a compound having 3 or more and less than 10 is denoted as B)
0.54 nM | 25.7 nM | CCC[C@H]1C(=O)N[C@@H]([C@@H](C)CC)C(=O)N(C)CC(=O)N(C)[C@H]2C/C=C\CCN(C2=O)[C@@H](CC2CCCCC2)C(=O)N(C)CC(=O)N[C@@H](CCc2ccc(C(F)(F)F)c(OC)c2)C(=O)N2C[C@@H](C)C[C@H]2C(=O)N(C)C2(CCC2)C(=O)N(C)[C@@H](C2CCCC2)C(=O)N(C)[C@H](C(=O)N(C)C)CC(=O)N1C [PP2370] | B (a compound having 3 or more and less than 10 is denoted as B) | B (a compound having 3 or more and less than 10 is denoted as B)
0.64 nM | 41.9 nM | CCOC[C@H]1C(=O)N[C@@H]([C@@H](C)CC)C(=O)N(C)CC(=O)N(C)[C@H]2C/C=C\CCN(C2=O)[C@@H](CC2CCCCC2)C(=O)N(C)CC(=O)N[C@@H](CCc2ccc(C(F)(F)F)c(OC)c2)C(=O)N2C[C@@H](C)C[C@H]2C(=O)N(C)C2(CCC2)C(=O)N(C)[C@@H](C2CCCC2)C(=O)N(C)[C@H](C(=O)N(C)C)CC(=O)N1C [PP2371] | A (a compound having 10 or more and less than 20 is denoted as A) | B (a compound having 3 or more and less than 10 is denoted as B)
0.79 nM | 3.3 nM | CCC[C@H]1C(=O)N[C@@H]([C@@H](C)CC)C(=O)N(C2CC2)CC(=O)N(C)[C@H]2C/C=C\CCN(C2=O)[C@@H](CC2CCCCC2)C(=O)N(C)CC(=O)N[C@@H](CCc2ccc(C(F)(F)F)c(OC)c2)C(=O)N2C[C@@H](C)C[C@H]2C(=O)N(C)C2(CCC2)C(=O)N(C)[C@@H](C2CCCC2)C(=O)N(C)[C@H](C(=O)N(C)C)CC(=O)N1C [PP2372] | A (a compound having 10 or more and less than 20 is denoted as A) | B (a compound having 3 or more and less than 10 is denoted as B)
0.66 nM | 6.5 nM | CCOC[C@H]1C(=O)N[C@@H]([C@@H](C)CC)C(=O)N(C2CC2)CC(=O)N(C)[C@H]2C/C=C\CCN(C2=O)[C@@H](CC2CCCCC2)C(=O)N(C)CC(=O)N[C@@H](CCc2ccc(C(F)(F)F)c(OC)c2)C(=O)N2C[C@@H](C)C[C@H]2C(=O)N(C)C2(CCC2)C(=O)N(C)[C@@H](C2CCCC2)C(=O)N(C)[C@H](C(=O)N(C)C)CC(=O)N1C [PP2373] | A (a compound having 10 or more and less than 20 is denoted as A) | A (a compound having 10 or more and less than 20 is denoted as A)
0.85 nM | 67.2 nM | CCC[C@H]1C(=O)N[C@@H]([C@@H](C)CC)C(=O)N2CCC[C@H]2C(=O)N(C)[C@H]2C/C=C\CCN(C2=O)[C@@H](CC2CCCCC2)C(=O)N(C)CC(=O)N[C@@H](CCc2ccc(C(F)(F)F)c(OC)c2)C(=O)N2C[C@@H](C)C[C@H]2C(=O)N(C)C2(CCC2)C(=O)N(C)[C@@H](C2CCCC2)C(=O)N(C)[C@H](C(=O)N(C)C)CC(=O)N1C [PP2374] | A (a compound having 10 or more and less than 20 is denoted as A) | A (a compound having 10 or more and less than 20 is denoted as A)
